Results published in patent US20090209525A1, “ENABLING METHODS TO IDENTIFY ALLOSTERIC MODULATORS OF RECEPTOR ACTIVITY” (priority 2006, published 2009).
Substitutions are numbered along the chain they refer to. Read-outs that look alike come from different tables or passages of the source.

How the values were obtained:
[1] = biological target: T1, M1 W101A receptor (Rattus norvegicus, UniProt P08482, W101A); assay: R-SAT HTS on M1 W101A receptor; type: cell-based; conditions: compound at 3 μM, triplicate retest, activity over basal cellular response
T1 construct: expressed in transfected cells
T1 sequence (P08482 1-460 W101A): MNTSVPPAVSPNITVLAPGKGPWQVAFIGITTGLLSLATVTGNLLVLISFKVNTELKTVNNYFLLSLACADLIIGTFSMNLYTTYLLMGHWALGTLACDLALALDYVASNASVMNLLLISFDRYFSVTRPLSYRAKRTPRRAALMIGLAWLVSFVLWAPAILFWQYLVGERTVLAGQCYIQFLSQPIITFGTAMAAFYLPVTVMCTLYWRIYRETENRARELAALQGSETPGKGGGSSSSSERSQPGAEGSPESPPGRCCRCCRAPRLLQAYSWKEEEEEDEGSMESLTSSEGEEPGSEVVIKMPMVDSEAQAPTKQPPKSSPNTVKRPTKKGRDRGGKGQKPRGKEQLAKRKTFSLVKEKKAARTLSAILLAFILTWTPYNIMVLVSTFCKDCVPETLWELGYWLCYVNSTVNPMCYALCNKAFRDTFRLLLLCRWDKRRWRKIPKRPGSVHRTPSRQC
Protocol: (§1) NIH-3T3 cells were grown in 96-well tissue culture plates to 70 to 80% confluence in Dulbecco's modified essential media (DMEM) supplemented with 100 units/ml penicillin, 100 micrograms/ml streptomycin, 0.3 mg/ml L-glutamine (1% PSG, GIBCO) and 10% calf serum (Sigma-Aldrich). Cells were transfected for 18 h with DMEM containing 0.08 micrograms/ml receptor DNA and 0.3 micrograms/ml pSI-Bgal (Promega, Madison Wis.), 0.5% v/v Polyfect (Qiagen, Valencia Calif.). Medium was replaced with DMEM containing 1% PSG, 0.5% calf serum, 2% cyto-sf3 (Kemp Biotechnologies, Frederick, Md.), and varying concentrations of ligand. […] Cells were grown in a humidified atmosphere with 5% ambient CO2 for 5 days. Medium was removed from the plates, and beta-galactosidase activity was measured by the addition of o-nitrophenyl -d-galactopyranoside in phosphate-buffered saline with 5% Nonidet P-40.
Cells were contacted with over 280,000 compounds at a concentration of 3 μM.

[2] = biological target: T1, M1 W101A receptor; assay: R-SAT HTS on M1 W101A receptor; type: cell-based; conditions: compound at 300 nM, triplicate retest, activity over basal cellular response
[3] = biological target: T2, M1 Y381 mutant receptor (Rattus norvegicus, UniProt P08482, Y381A); conditions: result in words; FIGS. 8A-8C
T2 sequence (P08482 1-460 Y381A): T1 sequence (P08482 1-460 W101A) with A101W, Y381A

[4] = biological target: T3, rat M1 wild-type receptors (Rattus norvegicus, UniProt P08482); assay: R-SAT functional assay, wild-type receptor; type: cell-based
T3 construct: expressed in transfected cells
T3 sequence (P08482 1-460): T1 sequence (P08482 1-460 W101A) with A101W
Protocol: (§2) Cells are co-transfected for 18 h with DMEM containing 0.08 micrograms/ml of an expression vector for the expression of the mutant receptor and 0.3 micrograms/ml pSI-Bgal (Promega, Madison Wis.), and 0.5% v/v Polyfect (Qiagen, Valencia Calif.), as recommended by the manufacturer. On day three, the medium is replaced with DMEM containing 1% PSG, 0.5% calf serum, 2% cyto-sf3 (Kemp Biotechnologies, Frederick, Md.), and varying concentrations of the compounds to be tested. Cells are grown in a humidified atmosphere with 5% ambient CO2 for 5 days. The media is removed from the plates, and beta-galactosidase activity is measured by the addition of o-nitrophenyl -d-galactopyranoside in phosphate-buffered saline with 5% Nonidet P-40. […] The following equation is fitted to the data using GraphPad Prism software (San Diego, Calif.):
as §1
(§3) Receptor Selection and Amplification (R-SAT™) Assays: R-SAT™ functional assays were carried out as follows. NIH-3T3 cells were grown in 96-well tissue culture plates to 70 to 80% confluence in Dulbecco's modified essential media (DMEM) supplemented with 100 units/ml penicillin, 100 micrograms/ml streptomycin, 0.3 mg/ml L-glutamine (1% PSG, GIBCO) and 10% calf serum (Sigma-Aldrich). Cells were transfected for 18 h with DMEM containing 0.08 micrograms/ml receptor DNA and 0.3 micrograms/ml pSI-Bgal (Promega, Madison Wis.), 0.5% v/v Polyfect (Qiagen, Valencia Calif.). The transfected cells were frozen away. Cells were thawed and added to 96 well plates with DMEM containing 1% PSG, 0.5% calf serum, 2% cyto-sf3 (Kemp Biotechnologies, Frederick, Md.), and varying concentrations of ligand.
(§4) In an effort to further characterize monoamine modulators, we used a panel of mutant muscarininc M1 receptors to analyze the activity and potency of orthosteric modulators and various allosteric modulators at those receptors.

[5] = biological target: T4, rat M1 W101A receptor (Rattus norvegicus, UniProt P08482, W101A); assay: R-SAT functional assay, W101A mutant; type: cell-based; conditions: M1 W101A
T4 construct: expressed in transfected cells
T4 sequence (P08482 1-460 W101A): T1 sequence (P08482 1-460 W101A)
Protocol: as §2, §1, §3, §4

[6] = biological target: T5, rat M1 Y381A receptor (Rattus norvegicus, UniProt P08482, Y381A); assay: R-SAT functional assay, Y381A mutant; type: cell-based
T5 construct: expressed in transfected cells; host or cells: NIH-3T3
T5 sequence (P08482 1-460 Y381A): T1 sequence (P08482 1-460 W101A) with A101W, Y381A
Protocol: as §2, §1, §3, §4

[7] = biological target: T6, M1 Y381A receptor (Rattus norvegicus, UniProt P08482, Y381A); assay: R-SAT antagonism of muscarinic agonists, Y381A; type: cell-based; conditions: M1 YS81A as printed; maximal inhibition of NDMC (3 μM) response
T6 construct: expressed in transfected cells; host or cells: NIH-3T3
T6 sequence (P08482 1-460 Y381A): T1 sequence (P08482 1-460 W101A) with A101W, Y381A
Protocol: as §3

[8] = Table 4, M1 wild type, maximum response relative to xanomeline
[9] = Table 10, M1 Wild-Type, maximum response relative to carbachol
[10] = Table 4, maximum response relative to xanomeline
[11] = Table 4, M1 Y381A, maximum response relative to xanomeline
[12] = Table 10, M1 Y381A, maximum response relative to AC-42

3 μM Avg. [1] | 300 nM Avg [2] | Structure (SMILES) | further results
4.44 | 4.11 | CCCOC1CCN(C[C@@H](C)CN2C(=O)CCc3ccccc32)CC1.O=C(O)C(=O)O | –
3.60 | 3.13 | CCCCC1CCN(CCCN2C(=O)CCc3ccccc32)CC1.O=C(O)C(=O)O | –
3.23 | 3.86 | CCCCC1CCN(CCCN2C(=O)COc3ccccc32)CC1.O=C(O)C(=O)O | –
4.50 | 4.34 | CCCCC1CCN(C[C@@H](C)Cn2c(=O)ccc3ccccc32)CC1.O=C(O)C(O)C(O)C(=O)O | –
4.51 | 4.15 | CCCOC1CCN(C[C@@H](C)CN2C(=O)COc3ccccc32)CC1 | –
3.34 | 3.30 | CCCCC1CCN(CCCN2C(=O)CSc3ccccc32)CC1.O=C(O)C(=O)O | –
4.19 | 3.32 | CCCCC1CCN(CCCN2C(=O)CCc3cc(OC)ccc32)CC1.O=C(O)C(=O)O | –
2.41 | 2.86 | CCCCC1CCN(CCCN2C(=O)COc3ccc(C(C)=O)cc32)CC1 | –
3.74 | 3.93 | CCCCC1CCN(C[C@@H](C)CN2C(=O)CCc3ccccc32)CC1.O=C(O)C(=O)O | –
4.17 | 3.81 | CCCC=C1CCN(C[C@@H](C)CN2C(=O)COc3ccc(F)cc32)CC1.O=C(O)C(=O)O | –
3.55 | 4.16 | CCCCC1CCN(C[C@@H](C)CN2C(=O)COc3ccccc32)CC1.O=C(O)C(=O)O | –
4.37 | 4.29 | CCCOC1CCN(C[C@@H](C)Cn2c(=O)ccc3ccccc32)CC1.O=C(O)C(=O)O | –
4.63 | 4.14 | CCCOC1CCN(C[C@@H](C)CN2C(=O)COc3ccccc32)CC1.O=C(O)C(=O)O | –

Continued, compound first:

Structure (SMILES) | 3 μM Avg. [1] | 300 nM Avg [2] | further results
CCCCC1CCN(CCn2c(=O)[nH]c3ccccc32)CC1 | 3.67 | 3.26 | –
C[N+]1(C)[C@@H]2CC(OC(=O)[C@H](CO)c3ccccc3)C[C@H]1[C@@H]1O[C@@H]12 (some centres unmarked) [^3H-NMS, 1-[N-methyl-^3H]Scopolamine methyl chloride] | – | – | binding of ^3H-NMS to receptor [3]: not to the Y381 mutant receptor
O=C1CCCN1CC#CCN1CCCC1 [Oxotremorine] | – | – | % Eff [4, 8]: 91%; % Eff [4, 9]: 91%; EC50 ([4]; pEC50, Table 4, M1 wild type): 0.0794 µM; EC50 ([4]; pEC50, Table 10, M1 Wild-Type, NA = non-active): 0.0316 µM; % Eff [5, 10]: 87%; % Eff ([5]; Table 10, maximum response relative to AC-42): 120%; EC50 ([5]; pEC50, Table 4): 3.16 µM; EC50 ([5]; pEC50, Table 10): 2.51 µM; EC50 [6]: 3.98 µM; % Eff [6, 11]: 8%; % Eff [6, 12]: 23%
CCCCC1CCN(CCCn2c(=O)ccc3cc(F)ccc32)CC1 | 3.85 | 3.81 | –
CCCCCCOc1nsnc1C1=CCCN(C)C1 [Xanomeline] | – | – | % Eff [4, 8]: 100%; % Eff [5, 10]: 106%; % Eff [6, 11]: 100%
COCCC1CCN(CCCn2c(=O)sc3ccccc32)CC1.O=C(O)C(=O)O | 3.35 | 2.87 | –
CCCCC1CCN(CCCn2c(=O)oc3c(Cl)cc(Cl)c(Cl)c32)CC1.O=C(O)C(=O)O | 2.60 | 2.36 | –
CCOCCC1CCN(CCCn2c(=O)[nH]c3ccccc32)CC1.O=C(O)C(F)(F)F | 2.83 | 2.70 | –
CCCOC1CCN(CCCn2c(=O)ccc3ccccc32)CC1 | 4.65 | 3.90 | –
CN1CCN(C2=Nc3ccccc3Oc3ccc(Cl)cc32)CC1.O=C(O)CCC(=O)O [Loxapine] | – | – | % Eff [4, 9]: 3%; EC50 ([6]; Table 10, M1 Y381A, NA = non-active, read-out: pEC50 (converted)): 1.26 µM; % Eff [6, 12]: 165%
C[N+]1(C)[C@@H]2C[C@@H](OC(=O)[C@H](CO)c3ccccc3)C[C@H]1[C@@H]1O[C@@H]12 [NMS] | – | – | inhib [7]: 36%
CC(C)COc1ccc(CC(=O)N(Cc2ccc(F)cc2)C2CCN(CCCN3C(=O)OC[C@@H]3C(C)C)CC2)cc1.O=C(O)C(=O)O | 3.18 | 2.58 | –
